# Laboratory results from patent US20190352511A1, “LANTHANIDE COMPLEXES COMPRISING DENDRIMERS” (UNIVERSITE D'ORLEANS, priority 2017, published 2019).
# Assays:
# [1] = Absolute quantum yields (Q) in DMSO solution; format: physicochemical
# Text: The absolute quantum yields of the chromophore (compound 9) and dendrimers (Ln8-)G3P-(Bodipy1)n (n=16, 32; Ln=Yb^3+, Nd^3+) are summarized in Table 1. Significant decreases (6 and 3.4 times) in quantum emission efficiencies from the aza-BODIPY-COOH chromophoric moieties for the functionalized dendrimers, G3P-(aza-BODIPY)32 and G3P-(aza-BODIPY)16, respectively. […] On the other hand, the Q values are increased by 1.7 and 1.4 times for G3P-(Bodipy1)32 during the encapsulation of the lanthanide cations Yb^3+ and Nd^3+, respectively.
# [2] = Photobleaching / photostability under continuous illumination; format: physicochemical; conditions: 10 μM in DMSO, uninterrupted illumination at 670 nm for 3 h, emission at 735 nm
# Description: The experiments were carried out for a solution at 10 μM in DMSO and under uninterrupted illumination at 670 nm, the emission being collected at 735 nm.
# To test the photostability of the system, the chromophore (compound 9) and the dendrimers (Ln8-)G3P-(Bodipy1)n (n=16, 32; Ln =Yb^3+, Nd^3+) were continuously illuminated with 670 […]. nm and the emission signal was monitored at 735 nm. […] However, the photostability of G3P-(Bodipy1)16 could be improved by the incorporation of Ln^3+. In addition, it turned out to be dependent on the nature of the lanthanides. […] As for the initial chromophore, compound 9 (FIG. 5) loses 75% of its luminescence intensity after 3 hours of illumination. Therefore, in general, the attachment of the chromophore moieties to the dendrimer structure and the presence of Ln^3+ can be advantageously used to provide and enhance the photostability of the probe.
# The continuous illumination of G3P-(Alkyne)x-(Cyanine)y (x=22-24, y=8-10) with a light centered at 665 nm makes it possible to estimate the photostability of the dendrimers which appears to be rather weak. (FIG. 11).
# HeLa cells [3] = experiment: Alamar Blue cytotoxicity test; format: cell-based, human; conditions: up to 2 μM, 24 h incubation
# Description: In order to determine the potential toxicity of the described dendrimers, an Alamar Blue test was performed on the HeLa […] carcinoma human cell line (FIG. 6). Different concentrations of chromophores (compound 9) and dendrimers (Ln8-)G3P-(Bodipy1)n (n=16, 32; Ln=Yb^3+, Nd^3+) were tested.
# HeLa cells [4] = experiment: Cellular internalization by flow cytometry (NaN3 or 4° C. inhibition); format: cell-based, human; conditions: 1.5 μM; for Cellular internalization, Active (percentage inhibited with NaN3): NaN3 treatment
# Description: HeLa cells were incubated for 30 min with a 1.5 μM concentration solution of chromophores and dendrimers (Ln8-)G3P-(Bodipy1)n (n=16, 32; Ln=Yb^3+, Nd^3+) as control. In order to block the active and passive transport pathways, HeLa cells were treated with NaN3 (active internalization inhibitor) or pre-incubated at 4° C. for 30 min (inhibition of active and passive pathways) before incubation with the dendrimers.
# Cytometry has been used to quantify cell internalization of dendrimers and to better understand signal intensity differences observed in confocal microscopy. The mechanisms of passive (non-dependent energy) and active (energy dependent) internalization of cells have been studied. Active transport was inhibited with sodium azide (NaN3), while incubation at 4° C. inhibited active and passive transport pathways by increasing the plasma membrane stiffness of HeLa cells (S. Vranic, N. Boggetto, V. Contremoulins, S. Mornet, N. Reinhardt, F. Marano, A. Baeza-Squiban, S. Boland, Deciphering the mechanisms of cellular uptake of nanoparticles by accurate evaluation of internalization for cytometry, Particle and Fiber Toxicology, 10 (2013) 1-16).
# However, for both types of dendrimers, internalization is consistently higher for those containing Yb^3+ than for those containing Nd^3+. […] For the chromophore compound 9, a relatively strong emission signal was observed and corresponding to 65% internalization of Yb8G3P-(Bodipy1)16. […] Dendrimers enter cells through active and passive transport pathways (FIG. 8). The relative percentages of active or passive internalization vary according to the number of Bodipy chromophore and the presence of Ln^3+. […] However, further studies are needed to clarify the exact mechanisms of active transportation. […]
# HeLa cells [5] = experiment: Confocal fluorescence microscopy imaging; format: cell-based, human; conditions: 30 min incubation, 1.5 μM, λex 633 nm (laser 6%), λem 650-800 nm
# Description: HeLa cells after 30 min of incubation with a solution of 1.5 μM compound 9 and dendrimer (Ln8-)G3P-(Bodipy1)n (n=16, 32; Ln=Yb^3+, Nd^3+). The emission of aza-BODIPY (λex: 633 nm, λem: 650-800 nm) was observed under excitation at 633 nm (laser power at 6%). (Top) Yb8-G3P-(Bodipy1)16 (A), Nd8-G3P-(Bodipy1)16 (B), G3P-(Bodipy1)16 (C), Compound 9 (D) and (bottom) Yb8-G3P-(Bodipy1)32 (A), Nd8-G3P-(Bodipy1)32 (B), G3P-(Bodipy1)32 (C), untreated cells (D). The images are taken in the plane of the cellular nucleus. The white arrows indicate the specific localization of the dendrimers in the lysosomes and the yellow arrows indicate the filopods. 63× magnification lens.
# Confocal microscopy experiments were performed to confirm the intracellular localization of the dendrimers (FIG. 7). For this purpose, HeLa cells were incubated for 30 min with a concentration solution of 1.5 μM, which corresponds to ˜89-100% of cell viability. The fluorescence of the dendrimers was observed using a 633 nm laser as the excitation source and the emission of aza-BODIPY was collected between 650 and 800 nm with an optical cut of 1 μm in the z axis. The same laser power was used for the different experiments to compare the signal intensity variations between different dendrimers.
# Absorption spectra = format: physicochemical; conditions: DMSO, low energy main band at 672 nm
# Text: For the sake of comparison, the absorption spectrum of compound 9 is multiplied by a factor corresponding to the number of chromophores attached to the branches of the dendrimer, for example, by 16 for (Ln8-) G3P-(Bodipy1)16 and by 32 for (Ln8-) G3P-(Bodipy1)32.
# The absorption spectrum of the Bodipy chromophore (compound 9) measured in a DMSO solution has a broad band of up to 770 nm with a low energy main band at 672 nm (ϵ=2.1.10^5 M^−1 cm^−1), FIG. 3). […] On the other hand, the molar coefficient of absorption increases with the number of Bodipy chromophore units attached.
# Absorption spectra of the Yb8-G3P-(TPP)32 complex were recorded in DMSO and in the DMSO/(Opti-MEM/FCS, 6: 94%) mixture (FIG. 13).
structure (smiles),measurement,setting,value
"COc1ccc(-c2cc(-c3ccccc3)n(B(F)F)c2/N=C2\N=C(c3ccccc3)C=C2c2ccc(OCC(=O)O)cc2)cc1 [Compound 9, (Z)-2-(4-(2((1-(difluoroboryl)-3-(4-methoxyphenyl)-5-phenyl-1H-pyrrol-2-yl)imino)-5-phenyl-2H-pyrrol-3-yl)phenoxy)acetic acid]",quantum yield ratio versus Yb8-G3P-(aza-BODIPY)16,[1],3.4 times
same,Q (%) quantum yield,"[1]; 10 μM in DMSO, room temperature, excitation 650 nm, emission collected 660 to 850 nm",8.04(8) %
same,decrease of initial luminescence intensity,[2],75%
same,cell viability,HeLa cells [3],~100%
same,"Cellular internalization, Passive",HeLa cells [4]; difference between internalization inhibited at 4° C. and inhibited with sodium azide,81 ± 1%
same,internalization relative to Yb8G3P-(Bodipy1)16,HeLa cells [4]; 30 min incubation,65%
same,"Cellular internalization, Active (percentage inhibited with NaN3)",HeLa cells [4]; 30 min incubation,19%
same,"Cellular internalization, Active (percentage inhibited with NaN3)","HeLa cells [4]; 30 min incubation, listed as Composé{acute over ( )}9, 1.5 µM",18 ± 4%
same,intracellular emission signal intensity (confocal),HeLa cells [5],signal of lower intensity
same,molar absorption coefficient ϵ,Absorption spectra,2.1.10^5 M^−1 cm^−1
